According to paper PMC10970924 (Life, 2024):
Values joined by “and” are separate entries in the source; they are usually repeats but may differ in a detail not shown here. Equal values may be shown once.

Tests used:
Experiment in all cases: Proliferation by impedance biosensor (RTCA DP Analyzer)
PC-3 = assay type: cell-based; conditions: Homo sapiens, PC-3, 72 h, incubation three days, read-out: IC50 inhibitory concentration, PC-3
Protocol: (§1) The effect of the test compounds on the proliferation of multiple cell lines was assessed in real time using the RTCA DP Analyzer (Roche, Basel, Switzerland). For this purpose, we used specialized E-plates containing wells similar in size to a standard 96-well plate, but their bottoms were covered with microelectrodes to assess impedance. When cells adhere to the microelectrodes, the impedance of the well changes, which allows us to calculate the cell index proportional to the cell number. In the experiment, cells were seeded in the E-plate at densities of 20,000 cells per milliliter (180 μL/well). At 24 h post-cell attachment, 20 μL of compounds at various test concentrations or solvent as a control were introduced, and cells were then cultured with real-time impedance registration for 5 days.

MDA-MB-231 = assay type: cell-based; conditions: Homo sapiens, MDA-MB-231, 72 h, incubation three days, read-out: IC50 inhibitory concentration, MDA-MB-231
Protocol: as §1

HSF = assay type: cell-based; conditions: Homo sapiens, 72 h, incubation three days, read-out: IC50 inhibitory concentration, HSF
Protocol: as §1

SF-539 = assay type: cell-based; conditions: Homo sapiens, SF-539, 72 h, incubation three days, read-out: IC50 inhibitory concentration, SF-539
Protocol: as §1

HCT-116 = assay type: cell-based; conditions: Homo sapiens, HCT-116, 72 h, incubation three days, read-out: IC50 inhibitory concentration, HCT-116
Protocol: as §1

MCF-7 = assay type: cell-based, human; conditions: test concentration selected from biosensor data
Protocol: as §1

Structure (SMILES): COc1cccc2c1C(=O)c1c(O)c3c(c(O)c1C2=O)CC(O)(C(=O)CO)CC3OC1CC(NC(=O)/C=C/c2cnc(C)c3c2COC(C)(C)O3)C(O)C(C)O1 (centres unmarked) [DOX-2, (E)-N-(3-hydroxy-2-methyl-6-((3,5,12-trihydroxy-3-(2-hydroxyacetyl)-10-methoxy-6,11-dioxo-1,2,3,4,6,11-hexahydrotetracen-1-yl)oxy)tetrahydro-2H-pyran-4-yl)-3-(2,2,8-trimethyl-4H-[1,3]dioxino[4,5-c]pyridin-5-yl)acrylamide]
- IC50 (PC-3): 40.3 ± 13.5 µM
- IC50 (MDA-MB-231): 47.6 ± 26.1 µM
- IC50 (HSF): ~100 µM
- IC50 (SF-539): 11.6 ± 8.55 µM
- IC50 (HCT-116): 1.67 ± 0.02 µM
- IC20 (MCF-7; Homo sapiens, MCF7): 1.5 µM
- IC0, MCF-7 (MCF-7): 0.4 µM
- IC4, MCF-7 (MCF-7): 0.7 µM
- IC30, MCF-7 (MCF-7): 5 μM and 5 µM (IC30) μM
- IC60, MCF-7 (MCF-7): 10 μM and 10 µM (IC60) μM
- IC70, MCF-7 (MCF-7): 20 μM and 20 µM (IC70) μM
